Data on seven compounds can be found in ChEMBL document CHEMBL1201862, “PubChem BioAssay data set” (2004).

Experiment in all cases: DTP human tumour cell line panel, 48 h
Test [1] concerns 786-0.
The test system of test [2] is A549.
Test [3] concerns MDA-N.
Test [4] deals with NCI-H522.
Test [5] has as its system SW-620.
The test system of test [6] is SN12C.
The test system of test [7] is MDA-MB-231.
Test [8] has as its system KM12.
Test [9] has as its system NCI/ADR-RES.
Test [10] deals with Hs-578T.
For test [11], the system named is SR.
Test [12] has as its system NCI-H23.
Test [13] concerns HCT-15.
Test [14] concerns OVCAR-5.
Test [15] has as its system M14.
Test [16] relates to HCT-116.
Test [17] deals with SF-295.
Test [18] deals with HOP-92.
The subject of test [19] is EKVX.
The subject of test [20] is SF-268.

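Method: 48-hour compound exposure of cells in 96-well plates, five concentrations, linear interpolation of endpoints. GI50 = concentration required for 50% inhibition of growth.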 The source made the active and inactive calls. No stated cut-off is given here; in the data, active = GI50 up to about 1.1 µM and inactive = higher.

As usually defined, the GI50 is the concentration giving 50% growth inhibition. Turning to `C=C(C)[C@@H]1CC=C(CO)CC1` [PERILLYL ALCOHOL], the GI50 is 195 µM (inactive) in test [1]; 126 µM (inactive) in [2]; > 10 µM (inactive) in test [3]; 344 µM (inactive) in test [4]; 637 µM (inactive) in test [5]; 555 µM (inactive) in test [6]. In addition, the GI50 was > 10 µM (inactive) in [7]; 316 µM (inactive) in test [8]; > 10 µM (inactive) in [9]; > 10 µM (inactive) in [10]; 152 µM (inactive) in test [11]; 465 µM (inactive) in test [12]. Moreover, the 50% growth inhibitory concentration (GI50) was 167 µM in [13]; 169 µM (inactive) in [14]; 710 µM (inactive) in test [15]; 96.2 µM (inactive) in test [16]; 266 µM (inactive) in test [17]; 117 µM (inactive) in test [18]. The GI50 in test [19] was 617 µM (inactive); in test [20], 84.1 µM (inactive).

For the compound `O=C(/C=C1\Nc2ccc([N+](=O)[O-])cc2N\C1=C/C(=O)c1ccc(F)cc1)c1ccc(F)cc1`, the GI50 was 12.9 µM (inactive) in [1]; > 100 µM (inactive) in [2]; > 100 µM (inactive) in test [3]; 10.5 µM (inactive) in test [4]; > 100 µM (inactive) in [5]; 90.2 µM (inactive) in test [6]. Besides, the GI50 was 16 µM (inactive) in [7]; > 100 µM (inactive) in test [8]; 82 µM (inactive) in test [9]; 14.9 µM (inactive) in test [10]; 16.8 µM (inactive) in test [11]; 19.9 µM (inactive) in test [12]. The GI50 in test [13] was 64.7 µM; in [14], > 100 µM (inactive); in test [15] it was > 100 µM (inactive); in [16], 32.5 µM (inactive); in test [17] it was 14.9 µM (inactive); in test [18], 35.1 µM (inactive). Besides, the results for the GI50 in [19] and in test [20] were 45.9 µM (inactive) and 9.71 µM (inactive), respectively.

Take `CC(O)(CNS(=O)(=O)c1ccccc1)c1ccccc1` (stereo not given): the GI50 in test [1], in [2], in test [3], in [4], in test [5] and in [6] was > 100 µM (inactive) each time. For the same compound, the GI50 in [7], in test [8], in [9], in [10], in test [11] and in test [12] was > 100 µM (inactive) throughout. Besides, the GI50 was above 100 µM in test [13]; > 100 µM (inactive) in [14]; > 100 µM (inactive) in [15]; > 100 µM (inactive) in [16]; > 100 µM (inactive) in [17]; > 100 µM (inactive) in test [18]. Further, the GI50 in [19] and in [20] was > 100 µM (inactive) in each case.

On to `Nc1ncc2c(n1)-c1ccccc1OC2N1CCOCC1` (stereo not given), for which the GI50 was > 100 µM (inactive) in [1]; > 100 µM (inactive) in [2]; > 100 µM (inactive) in test [3]; 45.2 µM (inactive) in test [4]; > 100 µM (inactive) in test [5]; > 100 µM (inactive) in test [6]. Moreover, the GI50 is > 100 µM (inactive) in test [7]; > 100 µM (inactive) in test [8]; > 100 µM (inactive) in test [9]; > 100 µM (inactive) in test [10]; 52.7 µM (inactive) in test [11]; > 100 µM (inactive) in [12]. Besides, the concentration for 50% growth inhibition (GI50) was above 100 µM in test [13]; > 100 µM (inactive) in test [14]; > 100 µM (inactive) in [15]; > 100 µM (inactive) in test [16]; > 100 µM (inactive) in test [17]; > 100 µM (inactive) in test [18]. Also, the figures for the GI50 in test [19] and in test [20] were 85.9 µM (inactive) and > 100 µM (inactive), respectively.

`CNC(=O)c1nnn(C2CCCCC2)c1S`: the GI50 in test [1], in [2], in test [3], in test [4], in test [5] and in [6] was > 100 µM (inactive) in each case. In addition, the GI50 in test [7], in [8], in test [9], in test [10], in test [11] and in test [12] was > 100 µM (inactive) throughout. Moreover, the GI50 in test [13] was above 100 µM; in [14] it was > 100 µM (inactive); in [15], > 100 µM (inactive); in test [16] it was > 100 µM (inactive); in test [17] it was > 100 µM (inactive); in test [18] it was > 100 µM (inactive). Further, the GI50 in [19] and in [20] was > 100 µM (inactive) in each case.

As to `O=C(CCCN1CCC2(CC1)C(=O)NC(=O)N2c1ccccc1)c1ccc(F)cc1`, the GI50 in test [1] was > 100 µM (inactive); in [2] it was > 100 µM (inactive); in [3] it was > 100 µM (inactive); in test [4], 8.73 µM (inactive); in test [5], > 100 µM (inactive); in [6], > 100 µM (inactive). In addition, the GI50 in test [7], in [8], in [9], in test [10], in [11] and in test [12] was > 100 µM (inactive) each time. In addition, the GI50 was above 100 µM in test [13]; > 100 µM (inactive) in test [14]; > 100 µM (inactive) in test [15]; > 100 µM (inactive) in test [16]; > 100 µM (inactive) in [17]; > 100 µM (inactive) in test [18]. For the same compound, the GI50 in test [19] and in test [20] was > 100 µM (inactive) in each case.

Turning to `COc1cc2oc3c(c(=O)c2c(O)c1/C=C/C(C)C)CCC(C)(C)Oc1cc(O)ccc1-3`, the GI50 was 14.9 µM (inactive) in test [1]; 12 µM (inactive) in test [2]; 13 µM (inactive) in test [3]; 18.1 µM (inactive) in test [4]; 21.4 µM (inactive) in [5]; 13.6 µM (inactive) in [6]. The GI50 was 16.6 µM (inactive) in test [7]; 7.41 µM (inactive) in test [8]; 15.4 µM (inactive) in test [9]; 10.4 µM (inactive) in [10]; 4.78 µM (inactive) in [11]; 16 µM (inactive) in test [12]. Also, the GI50 in test [13] was 10.2 µM; in [14], 16.6 µM (inactive); in [15], 10.8 µM (inactive); in [16], 18.2 µM (inactive); in test [17], 13.3 µM (inactive); in [18], 17.6 µM (inactive). The figures for the GI50 in test [19] and in [20] were 18.1 µM (inactive) and 15.6 µM (inactive), respectively.
